Reference: PMC7395068, “The evolution of strategies to minimise the risk of human drug-induced liver injury (DILI) in drug discovery and development” (Archives of Toxicology, 2020)
Like-named read-outs stand apart in the source and are kept apart here.

Tests used:
PHH [1] = conditions: cited from earlier work
[2] = test system: HepG2 cells, primary human hepatocytes; conditions: In vitro Assay; ref Garside 2014; cited from earlier work
[3] = test system: isolated mouse liver mitochondria; conditions: In vitro Assay; ref Porceddu 2012; cited from earlier work
PHH [4] = conditions: In vitro Assay; ref Albrecht 2019; cited from earlier work
[5] = read-out: Human plasma Cmax; total plasma Cmax.tot, median of 9 literature references; cited from earlier work
hLiMTs [6] = conditions: cited from earlier work
[7] = plasma free fraction; cited from earlier work
hLiMTs [8] = assay: Combined HCI (HCS) and cellular ATP 3D assay in hLiMTs
HepG2 cells = conditions: In vitro Assay; ref Persson 2013; cited from earlier work
[9] = test system: THLE or HepG2 cells, isolated mitochondria, BSEP; conditions: cited from earlier work
[10] = test system: THLE-Null and THLE-3A4 cells; conditions: In vitro Assay; ref Gustafsson 2014; cited from earlier work
HepaRG spheroids = assay: Combined HCI (HCS) and cellular ATP 3D assay in HepaRG spheroids; conditions: HepaRG; for AC50 / minimal effective concentration: Homo sapiens
HepG2 = test system: HepG2; design: method as in Albrecht 2019; conditions: In vitro Assay; ref Albrecht 2019; cited from earlier work
[11] = Plasma free fraction (fu) and unbound Cmax (Cmax,u); format: in vitro ADME, human; conditions: unbound plasma Cmax
[12] = In vitro Assay, ref Proctor 2017
[13] = Modeled in vitro assays (cytotoxicity, mitochondrial dysfunction, BSEP), ref Aleo et al. 2019

CCCC(CCC)C(=O)O [valproic acid]
PHH/100uM, Proctor (2017) (PHH [1]; 2D PHH, ATP, IC50 threshold 100 µM, ref Proctor et al. 2017): -VE | PHH ATP <100uM (PHH [1]; [12]): -VE | Cluster 1-6 +VE Assay [2]: +VE | in vitro data EC2<=1x Cmax [3]: +VE | in vitro data EC20<=2uM [3]: -VE | Cytotoxicity PHH 48 hrs (PHH [4]): +VE | Cmax [5]: 693 µM | hLiMTs ATP <100uM (hLiMTs [6]; [12]): -VE | hLiMTs/100uM, Proctor (2017) (hLiMTs [6]; hLiMTs, ATP, IC50 threshold 100 µM, ref Proctor et al. 2017): -VE | fu [7]: 0.080 | AC50 (hLiMTs [8]; Homo sapiens, read-out: ATP endpoint AC50): 7.08 mM | minimal effective concentration (hLiMTs [8]; Homo sapiens, read-out: ATP endpoint MEC): 6220 µM | minimal effective concentration (hLiMTs [8]; Homo sapiens, read-out: HCS endpoint MEC): 1600 µM | hLiMTs <25x Avg Cmax ATP (hLiMTs [8]; hLiMTs, ATP endpoint, cut-off <25x Avg Cmax): +ve | hLiMTs <100x Avg Cmaxu ATP (hLiMTs [8]; hLiMTs, ATP endpoint, cut-off <100x Avg Cmaxu): -ve | hLiMTs <25x Avg Cmax HCS (hLiMTs [8]; hLiMTs, HCS endpoints, cut-off <25x Avg Cmax): +ve | hLiMTs <100x Avg Cmaxu HCS (hLiMTs [8]; hLiMTs, HCS endpoints, cut-off <100x Avg Cmaxu): +ve (<100x Avg Cmaxu) | hLiMTs <25x Avg Cmax All (hLiMTs [8]; hLiMTs, all endpoints (ATP and HCS), cut-off <25x Avg Cmax): +ve | hLiMTs Cmax max All (hLiMTs [8]; hLiMTs, all endpoints, Cmax max used): +ve | hLiMTs Cmax min All (hLiMTs [8]; hLiMTs, all endpoints, Cmax min used): +ve | hLiMTs <10 uM All (hLiMTs [8]; hLiMTs, all endpoints, cut-off <10 uM): -ve | hLiMTs <100x Avg Cmaxu All (hLiMTs [8]; hLiMTs, all endpoints, cut-off <100x Avg Cmaxu): +ve (<100x Avg Cmaxu) | Cluser analysis (HepG2 cells): -VE | Structural based (HCI) (HepG2 cells): -VE | Partition Hybrid HRM Score ([9]; In vitro Assay, ref Aleo 2019): +VE | Ro2 Hybrid HRM Score ([9]; In vitro Assay, ref Aleo 2019): +VE | Partition Hybrid HRM Score ≥4, Aleo (2019) [9, 13]: +VE (Partition Hybrid HRM Score ≥4) | Partition Hybrid HRM Score ≥8, Aleo (2019) [9, 13]: +VE (Partition Hybrid HRM Score ≥8) | Rule of Two hybrid HRM Score ≥3, Aleo (2019) [9, 13]: +VE (Rule of Two hybrid HRM Score ≥3) | Rule of Two hybrid HRM Score ≥8, Aleo (2019) [9, 13]: -VE | THLE-Null [10]: -VE | HepaRG <25x Avg Cmax ATP (HepaRG spheroids; ATP endpoint, cut-off <25x Avg Cmax): +ve | HepaRG <100x Avg Cmaxu ATP (HepaRG spheroids; ATP endpoint, cut-off <100x Avg Cmaxu): +ve (<100x Avg Cmaxu) | HepaRG <25x Avg Cmax HCS (HepaRG spheroids; HCS endpoints, cut-off <25x Avg Cmax): +ve | HepaRG <100x Avg Cmaxu HCS (HepaRG spheroids; HCS endpoints, cut-off <100x Avg Cmaxu): +ve (<100x Avg Cmaxu) | HepaRG <25x Avg Cmax All (HepaRG spheroids; all endpoints (ATP and HCS), cut-off <25x Avg Cmax): +ve | HepaRG Cmax max All (HepaRG spheroids; all endpoints, Cmax max used): +ve | HepaRG Cmax min All (HepaRG spheroids; all endpoints, Cmax min used): +ve | HepaRG <10 uM All (HepaRG spheroids; all endpoints, cut-off <10 uM): -ve | HepaRG <100x Avg Cmaxu All (HepaRG spheroids; all endpoints, cut-off <100x Avg Cmaxu): +ve (<100x Avg Cmaxu) | AC50 (HepaRG spheroids; read-out: ATP endpoint AC50): 41.3 µM | minimal effective concentration (HepaRG spheroids; read-out: ATP endpoint MEC): 12.3 µM | AC50 (HepaRG spheroids; read-out: HCS endpoint AC50): 148 µM | minimal effective concentration (HepaRG spheroids; read-out: HCS endpoint MEC): 45.6 µM | Cytotoxicity HepG2 48 hrs (HepG2): +VE | Human plasma Cmax,u [11]: 55.474 µM
